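Protocol summary: plate cells (96-well), add compound at 5 concentrations, incubate 48 h, interpolate endpoints linearly. The concentration for 50% growth inhibition is given as GI50.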 The source made the active and inactive calls. Cut-off read from the data, not from the text of the source: active = GI50 up to about 1.1 µM and inactive = higher.
Experiments:
Assay in all cases: inhibition of tumour cell growth, NCI panel, 48 h
NCI-H522 = tested on: NCI-H522
NCI-H23 = tested on: NCI-H23
SF-539 = tested on: SF-539
MOLT-4 = tested on: MOLT-4
HOP-62 = tested on: HOP-62
UACC-257 = tested on: UACC-257
HCT-116 = tested on: HCT-116
SNB-75 = tested on: SNB-75
SF-268 = tested on: SF-268
SK-OV-3 = tested on: SK-OV-3
K562 = tested on: K562
SN12C = tested on: SN12C
OVCAR-5 = tested on: OVCAR-5
NCI-H460 = tested on: NCI-H460
RPMI-8226 = tested on: RPMI-8226
KM12 = tested on: KM12
U-251 = tested on: U-251
NCI/ADR-RES = tested on: NCI/ADR-RES
BT-549 = tested on: BT-549
DU-145 = tested on: DU-145

SMILES	GI50 (NCI-H522)	GI50 (NCI-H23)	GI50 (SF-539)	GI50 (MOLT-4)	GI50 (HOP-62)	GI50 (UACC-257)	GI50 (HCT-116)	GI50 (SNB-75)	GI50 (SF-268)	GI50 (SK-OV-3)	GI50 (K562)	GI50 (SN12C)	GI50 (OVCAR-5)	GI50 (NCI-H460)	GI50 (RPMI-8226)	GI50 (KM12)	GI50 (U-251)	GI50 (NCI/ADR-RES)	GI50 (BT-549)	GI50 (DU-145)
O=C(CC1(O)C(=O)Nc2ccccc21)c1ccccc1O (stereo unspecified)	> 100 µM (inactive)	> 100 µM (inactive)	> 100 µM (inactive)	> 100 µM (inactive)	> 100 µM (inactive)	> 100 µM (inactive)	> 100 µM (inactive)	> 100 µM (inactive)	> 100 µM (inactive)	> 100 µM (inactive)	> 100 µM (inactive)	> 100 µM (inactive)	> 100 µM (inactive)	> 100 µM (inactive)	> 100 µM (inactive)	–	–	–	–	–
CC(C)(C)c1cc2c(OP(c3ccccc3)c3ccccc3)c(c1)Cc1cc(C(C)(C)C)cc(c1OP(c1ccccc1)c1ccccc1)Cc1cc(C(C)(C)C)cc(c1OP(c1ccccc1)c1ccccc1)Cc1cc(C(C)(C)C)cc(c1OP(c1ccccc1)c1ccccc1)C2	> 5 µM (inactive)	> 5 µM (inactive)	> 5 µM (inactive)	> 5 µM (inactive)	> 5 µM (inactive)	> 5 µM (inactive)	> 5 µM (inactive)	> 5 µM (inactive)	> 5 µM (inactive)	> 5 µM (inactive)	> 5 µM (inactive)	> 5 µM (inactive)	> 5 µM (inactive)	> 5 µM (inactive)	> 5 µM (inactive)	> 5 µM (inactive)	> 5 µM (inactive)	–	–	–
COc1ccc(/C=C(\NC(=O)c2ccccc2)c2nc3ccccc3[nH]2)cc1	24.7 µM (inactive)	19.1 µM (inactive)	39.1 µM (inactive)	24.5 µM (inactive)	46.2 µM (inactive)	23.8 µM (inactive)	35.2 µM (inactive)	29.4 µM (inactive)	37 µM (inactive)	45.1 µM (inactive)	34.9 µM (inactive)	41.3 µM (inactive)	29 µM (inactive)	34.2 µM (inactive)	18.9 µM (inactive)	39.6 µM (inactive)	30.3 µM (inactive)	–	–	–
Cc1cccc(C(C)(C)C)c1NC(=O)C(=O)Cc1nc2ccccc2s1	> 100 µM (inactive)	> 100 µM (inactive)	> 100 µM (inactive)	> 100 µM (inactive)	> 100 µM (inactive)	> 100 µM (inactive)	> 100 µM (inactive)	> 100 µM (inactive)	> 100 µM (inactive)	> 100 µM (inactive)	> 100 µM (inactive)	> 100 µM (inactive)	> 100 µM (inactive)	> 100 µM (inactive)	> 100 µM (inactive)	> 100 µM (inactive)	> 100 µM (inactive)	–	–	–
CC(C#N)Nc1ccc(Oc2ccc(C(C)(C)c3ccc(Oc4ccc(NC(C)C#N)cc4)cc3)cc2)cc1 (stereo unspecified)	–	40.9 µM (inactive)	> 100 µM (inactive)	16.5 µM (inactive)	–	8.85 µM (inactive)	30.7 µM (inactive)	92.5 µM (inactive)	86.5 µM (inactive)	> 100 µM (inactive)	> 100 µM (inactive)	> 100 µM (inactive)	> 100 µM (inactive)	> 100 µM (inactive)	–	> 100 µM (inactive)	> 100 µM (inactive)	> 100 µM (inactive)	> 100 µM (inactive)	–
COC(=O)C12Oc3ccc(-c4ccc5c(c4O)C(=O)C4=CCC(C)C(O)C4(C(=O)OC)O5)c(O)c3C(=O)C1=CCC(C)C2O (stereo unspecified)	1.01 µM (active)	1.37 µM (inactive)	2.89 µM (inactive)	5.66 µM (inactive)	2.18 µM (inactive)	1.82 µM (inactive)	0.925 µM (active)	6.22 µM (inactive)	1.1 µM (active)	1.96 µM (inactive)	3.77 µM (inactive)	1.98 µM (inactive)	2.13 µM (inactive)	1.97 µM (inactive)	0.897 µM (active)	1.47 µM (inactive)	1.59 µM (inactive)	–	–	–
O=C(c1ccccc1)N1C(=S)N(c2ccccn2)C(=N/c2ccccc2)/C1=N\c1ccccc1	2.16 µM (inactive)	6.4 µM (inactive)	12.9 µM (inactive)	4.01 µM (inactive)	27.4 µM (inactive)	23 µM (inactive)	12.8 µM (inactive)	20.5 µM (inactive)	24.9 µM (inactive)	43.6 µM (inactive)	7.18 µM (inactive)	31.5 µM (inactive)	11.2 µM (inactive)	29.5 µM (inactive)	7.91 µM (inactive)	5.43 µM (inactive)	8.11 µM (inactive)	10.5 µM (inactive)	–	> 61.9 µM (inactive)
Cc1nc2ccc(Br)cc2c(=O)n1-c1nnc(C(C)(C)C)s1	> 10 µM (inactive)	> 10 µM (inactive)	> 10 µM (inactive)	> 10 µM (inactive)	> 10 µM (inactive)	> 10 µM (inactive)	> 10 µM (inactive)	> 10 µM (inactive)	> 10 µM (inactive)	> 10 µM (inactive)	> 10 µM (inactive)	> 10 µM (inactive)	> 10 µM (inactive)	> 10 µM (inactive)	> 10 µM (inactive)	> 10 µM (inactive)	> 10 µM (inactive)	> 10 µM (inactive)	–	> 10 µM (inactive)
C[C@@H](O)CCC(=O)c1ccoc1	> 100 µM (inactive)	> 100 µM (inactive)	> 100 µM (inactive)	> 100 µM (inactive)	> 100 µM (inactive)	> 100 µM (inactive)	> 100 µM (inactive)	> 49.2 µM (inactive)	> 100 µM (inactive)	> 100 µM (inactive)	> 100 µM (inactive)	> 100 µM (inactive)	> 100 µM (inactive)	> 100 µM (inactive)	> 100 µM (inactive)	> 100 µM (inactive)	> 100 µM (inactive)	–	–	–
O=c1cc(-c2ccccc2)[nH]c2cc(F)c(F)cc12	0.385 µM (active)	0.653 µM (active)	0.342 µM (active)	0.438 µM (active)	1.33 µM (inactive)	0.498 µM (active)	0.417 µM (active)	0.274 µM (active)	1.45 µM (inactive)	0.575 µM (active)	0.29 µM (active)	1.97 µM (inactive)	1.89 µM (inactive)	0.565 µM (active)	0.309 µM (active)	0.326 µM (active)	0.692 µM (active)	0.425 µM (active)	–	0.472 µM (active)
Nc1ncnc2c1ncn2CC(OCP(=O)(O)O)Oc1ccccc1 (stereo unspecified)	–	–	> 100 µM (inactive)	–	> 100 µM (inactive)	> 100 µM (inactive)	> 100 µM (inactive)	> 100 µM (inactive)	> 100 µM (inactive)	> 100 µM (inactive)	> 100 µM (inactive)	> 100 µM (inactive)	> 100 µM (inactive)	–	> 100 µM (inactive)	> 100 µM (inactive)	> 100 µM (inactive)	> 100 µM (inactive)	–	> 100 µM (inactive)
CCn1ncc2c1nc(-c1ccccc1)c[n+]2[O-]	90.4 µM (inactive)	> 100 µM (inactive)	> 100 µM (inactive)	> 100 µM (inactive)	2.22 µM (inactive)	> 100 µM (inactive)	63.7 µM (inactive)	36.9 µM (inactive)	> 100 µM (inactive)	–	> 100 µM (inactive)	> 100 µM (inactive)	> 100 µM (inactive)	> 100 µM (inactive)	> 100 µM (inactive)	> 100 µM (inactive)	–	> 100 µM (inactive)	–	5.82 µM (inactive)
COc1ccc(C)cc1-c1cc(Sc2ccccc2)c(-c2cc(C)ccc2OC)o1	> 31.6 µM (inactive)	> 31.6 µM (inactive)	> 31.6 µM (inactive)	> 31.6 µM (inactive)	> 31.6 µM (inactive)	> 31.6 µM (inactive)	> 31.6 µM (inactive)	> 31.6 µM (inactive)	> 31.6 µM (inactive)	> 31.6 µM (inactive)	> 31.6 µM (inactive)	> 31.6 µM (inactive)	> 100 µM (inactive)	> 31.6 µM (inactive)	> 31.6 µM (inactive)	> 31.6 µM (inactive)	> 31.6 µM (inactive)	–	–	–
COc1ccc(/C=C2\N=C3Sc4c([nH]cnc4=O)N3C2=O)cc1	> 100 µM (inactive)	> 100 µM (inactive)	> 100 µM (inactive)	> 100 µM (inactive)	> 100 µM (inactive)	> 100 µM (inactive)	> 100 µM (inactive)	> 100 µM (inactive)	> 100 µM (inactive)	> 100 µM (inactive)	> 100 µM (inactive)	> 100 µM (inactive)	> 100 µM (inactive)	–	> 100 µM (inactive)	> 100 µM (inactive)	> 100 µM (inactive)	> 100 µM (inactive)	–	> 100 µM (inactive)
CN(C)c1n/c(=N/c2cccc(Cl)c2)ss1	1.16 µM (inactive)	12.9 µM (inactive)	18.7 µM (inactive)	3.03 µM (inactive)	68.5 µM (inactive)	15.6 µM (inactive)	11.9 µM (inactive)	31 µM (inactive)	13.6 µM (inactive)	68.9 µM (inactive)	9.08 µM (inactive)	12.8 µM (inactive)	35 µM (inactive)	9.2 µM (inactive)	0.951 µM (active)	17.5 µM (inactive)	11.8 µM (inactive)	–	–	–
O=C(O)c1cc2ccccc2c(/N=N/c2ccc(S(=O)(=O)Nc3nccs3)cc2)c1O	> 100 µM (inactive)	> 100 µM (inactive)	> 100 µM (inactive)	> 100 µM (inactive)	> 100 µM (inactive)	> 100 µM (inactive)	> 100 µM (inactive)	> 100 µM (inactive)	> 100 µM (inactive)	> 100 µM (inactive)	> 100 µM (inactive)	> 100 µM (inactive)	> 100 µM (inactive)	> 100 µM (inactive)	> 100 µM (inactive)	> 100 µM (inactive)	> 100 µM (inactive)	> 100 µM (inactive)	–	> 100 µM (inactive)
